Test results reported in PMC6733907, “Structural basis for activation of a diguanylate cyclase required for bacterial predation in Bdellovibrio” (Nature Communications, 2019).
Where “and” joins values, the source holds several entries; their conditions need not be identical. Equal values may be shown once.

Columns and labels:
[1] = target: DgcB S15C-S73C-R218A (disulphide-stapled double cysteine mutant), full length (Bdellovibrio bacteriovorus HD100); experiment: SEC; non-reducing gel-filtration (buffer without DTT) after overnight incubation with 5 mM oxidised glutathione, sample at 50 mg/ml; sizes calibrated to known standards
[2] = target: T1, GGDEF-only construct of DgcB (Bdellovibrio bacteriovorus, UniProt Q6MPU8); experiment: co-purification of c-di-GMP with the protein; assay type: binding; conditions: I-site
T1 construct: gene Bd0742; GGDEF domain only, aa 148-310 (own numbering), C-terminal thrombin-cleavable 8xHis tag, E. coli BL21 lambda DE3
T1 sequence (Q6MPU8 158-320): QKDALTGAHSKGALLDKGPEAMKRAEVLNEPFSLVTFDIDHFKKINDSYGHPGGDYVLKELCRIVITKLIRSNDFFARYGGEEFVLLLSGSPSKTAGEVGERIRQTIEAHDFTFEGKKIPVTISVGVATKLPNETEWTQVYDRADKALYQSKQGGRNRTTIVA

[3] = target: T2, DgcB (full-length) (Bdellovibrio bacteriovorus, UniProt Q6MPU8); experiment: X-ray crystal structure, […] Å, co-purified ligand; assay type: binding; conditions: I-site (RxxD: R218, D221) of both monomers; two c-di-GMP per dimer; product, feedback inhibitor
T2 construct: gene Bd0742; full-length aa 1-310 (own numbering), C-terminal thrombin-cleavable 8xHis tag, E. coli BL21 lambda DE3; dimer with c-di-GMP
T2 sequence (Q6MPU8 11-320): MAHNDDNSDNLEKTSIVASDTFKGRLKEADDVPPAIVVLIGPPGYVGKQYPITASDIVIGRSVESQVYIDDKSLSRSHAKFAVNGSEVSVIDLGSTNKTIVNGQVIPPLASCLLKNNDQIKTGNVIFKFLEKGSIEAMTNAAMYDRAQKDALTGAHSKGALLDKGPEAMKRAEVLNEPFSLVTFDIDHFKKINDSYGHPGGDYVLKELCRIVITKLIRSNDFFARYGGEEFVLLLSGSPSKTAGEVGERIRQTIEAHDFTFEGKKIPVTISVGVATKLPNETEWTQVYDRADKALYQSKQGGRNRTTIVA

Row | Compound | stoichiometry N [1] | co-purification of c-di-GMP with the protein [2] | X-ray crystal structure, 1.79 Å, co-purified ligand [3]
1 | DgcB S15C-S73C-R218A (disulphide-stapled double cysteine mutant), full length (enzyme) | 4 and 2 |  | 
2 | Nc1nc2c(ncn2[C@@H]2O[C@@H]3COP(=O)(O)O[C@H]4[C@@H](O)[C@H](n5cnc6c(=O)[nH]c(N)nc65)O[C@@H]4COP(=O)(O)O[C@H]3[C@H]2O)c(=O)[nH]1 [c-di-GMP] |  | the GGDEF-only construct purifies with a small amount of c-di-GMP at the I-site | The dimer is stabilized by two molecules of c-di-GMP (classically intercalating via their planar bases)
